Data from the METLIN SMRT retention time set (Domingo-Almenara et al. 2019).

Assay: gradient 5% acetonitrile 3 min, to 50% in 2 min, to 85% in 15 min, held 3 min, 100 µL/min
Settings: column: Zorbax Extend-C18 2.1 x 50 mm; eluents: water / acetonitrile, 0.1% formic acid
In short: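 Pure standards were run in mixtures of ~100 molecules by HPLC coupled to a quadrupole time-of-flight mass spectrometer. The column was a Zorbax Extend-C18 (2.1 × 50 mm, 1.8 μm) at 100 μL/min, with water and acetonitrile each containing 0.1% formic acid, in positive and negative ionization mode. Dead and dwell volumes were 40 μL and 900 μL. Retention time was taken from computationally picked adduct peaks, each manually inspected, with data collected over 3 months.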

Row | RP-LC retention time [s] | SMILES
1 | 618 | CCN1CCN(c2cc(C(=O)O)c3cc(NS(=O)(=O)c4ccccc4C)ccc3n2)CC1
2 | 798 | O=C(Cn1nc2nc(N3CCCCCC3)ccn2c1=O)Nc1cc(F)cc(F)c1
3 | 731 | CCOc1ccc2c(n1)CCN(C(=O)NC1CCCC1)C2
4 | 863 | O=C(CCCCCCSc1ccc2ccccc2c1)NO
5 | 852 | COC(=O)c1cn(CC(=O)NCc2ccc3c(c2)OCCCO3)c2ccccc12
6 | 579 | CCc1nc2cccnc2n1CCN1CCN(C(=O)Nc2ccc3c(c2)OCO3)CC1
7 | 701 | CN1C(=O)C2CCCCN2c2ccc(C(=O)N3CCN(C(=O)c4ccco4)CC3)cc21 (configuration not stated)
8 | 803 | CCN1C(=O)CCc2cc(NS(=O)(=O)Cc3ccccc3Cl)ccc21
9 | 707 | Cc1ccc(NS(=O)(=O)c2cc(-c3[nH]ncc3C(=O)N(C)C)oc2C)c(Cl)c1
10 | 765 | O=C(NCC1CCN(S(=O)(=O)C2CC2)CC1)Nc1ccccc1C(F)(F)F
11 | 1080 | CCCn1cc(C(=O)NCCCOCC)c(S(=O)(=O)N2CCN(c3ccc(Cl)cc3)CC2)n1
12 | 763 | CCSc1nnc(-c2nn(C)c3c2CN(C(=O)c2ccc(F)c(F)c2)CC3)n1C
13 | 862 | CC(C)c1cc(C2CCCN2C(=O)c2cccs2)no1 (configuration not stated)
14 | 947 | Cc1oc2ccn(C)c(=O)c2c1C(=O)NCc1cccc(Br)c1
15 | 803 | CCN1C(=O)C(C)(C(=O)NCc2ccc(OC)cc2)Oc2cccnc21 (configuration not stated)
16 | 829 | COC(=O)c1cnn(C(=O)c2ccc(OC)cc2)c1N
17 | 860 | CC(C)c1nc2c(NC(=O)c3ccccc3)cccn2n1
18 | 750 | O=C(Cn1nc2c(N3CCCCCC3)nccn2c1=O)Nc1cccc(Cl)c1F
19 | 782 | COc1ccc(CNC(=O)NCCOc2cc(C)cc(C)c2)cc1OC
20 | 697 | Cc1csc(NC(=O)C2CCN(S(=O)(=O)c3cc(C(=O)N4CCCC4)n(C)c3)CC2)n1
21 | 892 | CCN(CC)C(=O)N1CCC(c2noc(-c3ccccc3)n2)C1 (configuration not stated)
22 | 666 | COc1ccc(NC(=O)c2[nH]c3cc(C)sc3c2CN(C)C)cc1

Row | RP-LC retention time [s] | SMILES
23 | 1070 | CCOC(=O)c1cc(C)nc2c1c(=O)n(Cc1ccccc1F)c(=O)n2C
24 | 566 | COC1C(=O)N(CC2CC2)C12CCN(C(=O)c1ccc(C)s1)CC2 (configuration not stated)
25 | 846 | CCN1C(=O)c2cccnc2Sc2cc(CNC(=O)COc3cccc(C)c3)ccc21
26 | 800 | CCc1nnc(NC(=O)CN2C(=O)C3CCCCN3c3ccc(S(=O)(=O)N(C)C)cc32)s1 (configuration not stated)
27 | 533 | Cc1ncsc1CN1CCCC(n2c(C)cnc2-c2ccncc2)C1 (configuration not stated)
28 | 1110 | COc1ccc2c(c1)-c1nc(NC(=O)c3ccccc3Cl)sc1CC2
29 | 866 | Cc1nn2c(CNC(=O)Cc3ccsc3)c(-c3ccccc3)nc2s1
30 | 756 | CCN1C(=O)c2cccnc2Sc2cc(CNC(=O)c3cccc(C#N)c3)ccc21
31 | 784 | CC1CCC(NC(=O)C2CCCN(S(=O)(=O)c3c[nH]c(C(=O)N4CCCC4)c3)C2)CC1 (configuration not stated)
32 | 961 | O=C(Nc1cccc(Cl)c1)N1CCC(n2c(C(F)(F)F)nc3cccnc32)CC1
33 | 588 | Cc1ccn2cc(CC(=O)Nc3ccccc3)nc2c1
34 | 918 | O=c1ccc(-c2nc(-c3ccc(Br)cc3)no2)cn1Cc1cc(=O)n2ccccc2n1
35 | 833 | COc1ccc(-n2c(=O)n(C)c(=O)c3cc(C(=O)NCc4cccc(OC)c4)cnc32)cc1
36 | 877 | O=C(NC1CCN(c2ccc(F)cc2)C1=O)c1ccc(F)c(Cl)c1 (configuration not stated)
37 | 632 | Cc1ccc(NC(=O)Nc2c(-c3ccncc3)nc3ccccn23)cc1C
38 | 853 | CCc1ccccc1NC(=O)N1CCC(n2cnc3c(C)cccc3c2=O)CC1
39 | 963 | Cc1cccc(-c2noc(Cn3ccn(-c4cc(C)ccc4C)c(=O)c3=O)n2)c1
40 | 1330 | Fc1ccc(OCc2nc(-c3ccc(-c4csc(C5CC5)n4)cc3)no2)cc1
41 | 703 | Cc1ccn2c(NC(=O)CCc3ccccc3)c(-c3ccc(F)cc3)nc2c1
42 | 1010 | Cc1nc(C(=O)Nc2ccc(Cl)c(C)c2)c(C)o1
43 | 879 | O=C(NCC(O)(c1ccccc1)C(F)(F)F)NC1CCCCC1 (configuration not stated)
44 | 620 | COc1cc(NC(=O)N2CCN(c3cc(-c4cccc(OC)c4)ncn3)CC2)cc(OC)c1

Row | RP-LC retention time [s] | SMILES
45 | 709 | CCC(NC(=O)Cc1cn(C)c2ncccc12)c1cccs1 (configuration not stated)
46 | 1100 | CCOc1ccccc1NC(=O)N1CCCC1c1nc(-c2ccc(F)cc2F)no1 (configuration not stated)
47 | 566 | CC(=O)Nc1ccc(-n2cnc(C(=O)N3CCN(C4CCCCC4)CC3)c2)nc1
48 | 812 | Cc1c(C(=O)N(C)C)cc(-c2ccccc2)n1C
49 | 1010 | Cc1ccc(OCC(=O)NC2(c3nc(-c4cccnc4)no3)CCCCC2)cc1
50 | 729 | COCCCNC(=O)CN1C(=O)C2CCCCN2c2ccc(C(=O)N3CCCCC3)cc21 (configuration not stated)
51 | 998 | CCN1C(=O)c2cccnc2Sc2cc(NC(=O)c3ccc(C(C)C)cc3)ccc21
52 | 803 | CCc1cc(=O)n(CC(=O)NCCc2ccc(Cl)cc2)c(N2CCOCC2)n1
53 | 1170 | CCc1sc(NC(=O)c2cc(Cl)c(NC(C)=O)cc2OC)nc1-c1ccccc1
54 | 929 | Cc1cccc(-c2noc(Cn3ccn(-c4ccc(Cl)cc4)c(=O)c3=O)n2)c1
55 | 790 | Cc1c(C(=O)N(C)C)cnn1-c1ccc(-c2nc(C3CC3)no2)cn1
56 | 719 | CCN1CCn2cc(S(=O)(=O)Nc3cc(OC)ccc3OC)cc2C1=O
57 | 713 | CN1C(=O)Cc2ccccc2C1C(=O)NCc1ccccc1F (configuration not stated)
58 | 916 | Cc1ccc(CNC(=O)c2cnc(-c3ccccc3)nc2-c2ccncc2)cc1C
59 | 744 | Cc1cc(C)c(-c2noc(C)n2)c(NC(=O)c2ccccc2Cl)n1
60 | 1180 | CCOc1ccc(Cn2c(=O)c3sccc3n(Cc3nc(-c4cccc(C)c4)no3)c2=O)cc1
61 | 857 | CC(C)(Cc1ccc2ccccc2c1)NC[C@@H](O)COc1cccc(Cl)c1C#N
62 | 1020 | CCc1ccc(N2CCC(C(=O)NCCc3c[nH]c4ccc(Cl)cc34)C2=O)cc1 (configuration not stated)
63 | 815 | COc1ccc(S(=O)(=O)N2CCC(n3cnnc3-c3ccccc3)CC2)cc1Cl
64 | 907 | COc1cc(OC)cc(C(=O)N2CCC3(CC2)N=C(c2ccc(Br)cc2)C(=O)N3)c1

Row | SMILES | RP-LC retention time [s]
65 | c1ccc(C2(c3ccccc3)CC2C2=NCCN2)cc1 (configuration not stated) | 732
66 | CN1C(=O)N(C)C2(CCN(C(=O)Cc3ccc(Cl)cc3)CC2)C1=O | 686
67 | COc1ccc(NC(=O)[C@@H]2c3ccccc3C(=O)N3CCCC[C@@H]23)cc1OC | 727
